Reference: patent US12714674B2, “JAK inhibitors having a specific particle size distribution” (Elanco US Inc., priority 2020, dated 2026)

Tests used:
[1] = system: pruritus and skin lesions associated with allergic dermatitis in dogs; assay: Four-arm, blinded, randomized, placebo-controlled study: control of pruritus and skin lesions associated with allergic dermatitis in dogs; format: in vivo, dog
Method: This study evaluated 2-(3-(4-(7H-pyrrolo[2,3-d]pyrimidin-4-yl)-1H-pyrazol-1-yl)-1-(cyclopropylsulfonyl)azetidin-3-yl)acetonitrile for control of pruritus and skin lesions associated with allergic dermatitis in dogs.
Oral tablets were prepared containing Form II 2-(3-(4-(7H-pyrrolo[2,3-d]pyrimidin-4-yl)-1H-pyrazol-1-yl)-1-(cyclopropylsulfonyl)azetidin-3-yl)acetonitrile, as follows. […] The tablet blends were pressed giving tablet cores containing 2.4 mg, 3.6 mg, 5.4 mg, and 16 mg of crystal Form II 2-(3-(4-(7H-pyrrolo[2,3-d]pyrimidin-4-yl)-1H-pyrazol-1-yl)-1-(cyclopropylsulfonyl)azetidin-3-yl)acetonitrile, as well as a placebo core. The tablet cores were coated with a mixture containing water and Opadry 20A150011 Red, thereby giving the final oral tablets for the study.
A four-arm, blinded, randomized, placebo-controlled study was conducted to assess the efficacy of daily administration of 2-(3-(4-(7H-pyrrolo[2,3-d]pyrimidin-4-yl)-1H-pyrazol-1-yl)-1-(cyclopropylsulfonyl)azetidin-3-yl)acetonitrile for control of pruritus and skin lesions associated with allergic dermatitis in dogs. Subjects were randomized to one of the following treatment arms: API-containing Tablets, 0.25-0.40 mg/kg Body Weight; API-containing Tablets, 0.40-0.60 mg/kg Body Weight; API-containing Tablets, 0.60-0.80 mg/kg Body Weight; and Placebo Tablets, 0.0 mg/kg Body Weight.
Dogs enrolled in the study received once daily treatment for approximately 28 days. Baseline data (clinical history, concomitant therapies, body weight, physical examinations and assessments of pruritus and atopic dermatitis) were collected for each dog at enrollment (Day 0). Additional health assessments, physical examinations, body weight measurements, assessments of pruritus and atopic dermatitis, and collection of blood samples for hematology, serum chemistry and pharmacokinetic (PK) analysis occurred consistent with standard testing protocols.
The primary effectiveness variable was treatment success. A treatment success was defined as a 2 unit or more reduction from baseline on the 10-unit owner-assessed pruritus Visual-Analog Scale (VAS) in at least 70% of the first 7 treatment days (i.e., in at least 5 of the first 7 treatment days). Dogs withdrawn from the study within the first 7 days of treatment due to a perceived lack of effectiveness were considered treatment failures.
Random effects were fit for site and site treatment with a variance component covariance structure and a compound symmetry covariance structure was fit for individual dogs.

[2] = Particle size distribution of micronized (jet-milled) material, laser diffraction; format: physicochemical
Method: Micronization was begun with a short “setup” run of approximately 300 grams was performed using a feed rate of 9.6 kg/hr. Venturi/mill pressures were 10 psi.
Particle size distribution method of 2-(3-(4-(7H-pyrrolo[2,3-d]pyrimidin-4-yl)-1H-pyrazol-1-yl)-1-(cyclopropylsulfonyl)azetidin-3-yl)acetonitrile.
Method: 150 to 175 mg 2-(3-(4-(7H-pyrrolo[2,3-d]pyrimidin-4-yl)-1H-pyrazol-1-yl)-1-(cyclopropylsulfonyl)azetidin-3-yl)acetonitrile sample are dispersed with 1 ml Tween20/water mixture (10/90 v/v %) to a paste in a beaker. The entire paste is then transferred to the measuring cuvette (beaker is rinsed out with water for complete sample transfer) and dispersed in 300 ml water. To homogenize the suspension in the measuring cuvette, the pump speed is set to 600 rpm. Before measurement the sample is stirred for 30 seconds. The optical concentration should be in the range of approximately 15 to 20% but the value depends strongly on the particle size distribution in the sample. If the 15 to 20% range is not reached either more sample paste must be added or the sample has to be diluted with water.
Equipment: a Helos laser diffractometer from Sympatec is used. Suspensions are measured using a Quixel cell. Dry measurement is done using the Rodos unit. Evaluation is done using the Paqxos software.

[3] = Example 50 setup run, feed rate 9.6 kg/hr, venturi/mill pressures 10 psi
[4] = PSD method of Example 51, Helos laser diffractometer, suspension in water/Tween20

Compound	primary endpoint for treatment success ([1]; 0.6-0.8 mg/kg once daily)	Treatment Success LSMean (response rate) ([1]; 0.60-0.80 mg/kg once daily oral tablets containing Form II, success = 2 unit or more reduction on owner pruritus VAS in at least 5 of first 7 treatment days, generalized linear mixed model)	improvement in lesion scores ([1]; 0.6-0.8 mg/kg once daily, day 28)	improvement in pruritus ([1]; 0.6-0.8 mg/kg once daily, from first dose)	dv10 [2, 3]	dv50 [2, 3]	dv90 [2, 3]	dv10 [2, 4]	dv50 [2, 4]	dv90 [2, 4]
N#CCC1(n2cc(-c3ncnc4[nH]ccc34)cn2)CN(S(=O)(=O)C2CC2)C1 [2-(3-(4-(7H-pyrrolo[2,3-d]pyrimidin-4-yl)-1H-pyrazol-1-yl)-1-(cyclopropylsulfonyl)azetidin-3-yl)acetonitrile]	achieved the primary endpoint for treatment success	0.7188	significant improvement in lesion scores at day 28	significant improvements in pruritus from first dose	–	–	–	–	–	–
N#CCC1(n2cc(-c3ncnc4[nH]ccc34)cn2)CN(S(=O)(=O)C2CC2)C1 [sample “I”, 2-(3-(4-(7H-pyrrolo[2,3-d]pyrimidin-4-yl)-1H-pyrazol-1-yl)-1-(cyclopropylsulfonyl)azetidin-3-yl)acetonitrile]	–	–	–	–	4 µm	20 µm	53 µm	4 µm	20 µm	51 µm
